Earlier results, collected in patent US11364228B2 (Ovid Therapeutics Inc., priority 2019, dated 2022).

Columns and labels:
[1] = tested on: patients with a history of drug abuse; details: patients with a history of drug abuse who received gaboxadol
[2] = tested on: sleep onset and sleep maintenance; details: three-month efficacy study, treatment of insomnia
[3] = conventional pharmaceutical compositions such as tablets and capsules

With `Oc1noc2c1CCNC2` [Gaboxadol, 4,5,6,7-tetrahydroisoxazolo [5,4-c]pyridine-3-ol] as the compound, how does the psychiatric adverse events [1] read?
The psychiatric adverse events was “steep increase in psychiatric adverse events”.

What about the half-life [3] of the same compound?
The half-life was 1.5 to 2 h.

What about the “time to reach peak concentration” value [3] of the same compound?
Its value is no more than 30 min.

What about the “half-life (t1/2)” value (plasma half-life post administration) of the same compound?
Its value is 1.5 to 2 h.

And the “effects in sleep onset and sleep maintenance” value [2]?
Its value is “failed to show significant effects”.
